One experiment has as its target NDM-1 (Klebsiella pneumoniae, UniProt C7C422). Briefly: Spectrophotometric IC50 determination against MBL. It counts as biochemical. Conditions: ± 0.32.
In another experiment the target is VIM-1 (Pseudomonas aeruginosa, UniProt A0A0F7KYQ8). Description: Spectrophotometric IC50 determination against MBL. The format is biochemical. Conditions: ± 1.07.
Experiment [1] concerns VIM-1 producing K. pneumoniae SEC-4. Briefly: Neutropenic murine thigh infection model. The format is in vivo, CD-1 mice. To be noted: 30 mg/kg imipenem + 10 mg/kg β-IDACYD intravenously, 2 h intervals for 24 hours. On the procedure:
Example 6. In-vivo murine thigh infection model: A murine thigh infection model was utilized based on the biodistribution results. In a neutropenic mouse thigh infection model was administered intravenously a therapeutic scheme of either 30 mg/kg imipenem or 30 mg/kg imipenem co-administered with 10 mg/kg β-IDACYD in 2 h intervals for 24 hours. At the end of the treatment the bacterial burden of the thigh was reduced by 0.5 log10 in the presence of 10 mg/kg β-IDACYD compared to that of the antibiotic monotherapy.
Twenty, 10 weeks old female (CD-1) mice were rendered neutropenic by administration of two doses of cyclophosphamide (150 mg/kg and 100 mg/kg per mouse on days -4 and -1, respectively). On day 0, all mice were challenged with 0.1 mL of a 10^7 CFU/mL of VIM-1 producing K. pneumoniae SEC-4 by intramuscular injection in the right thigh. From the six mice in the control group that were treated with normal saline (Group A), two mice were sacrificed 2 hours post inoculation while the other mice in groups of seven mice each were intravenously treated with 30 mg/kg imipenem (Group B) or 30 mg/kg imipenem along with 10 mg/kg β-IDACYD (Group C) at 2 hour intervals for 24 hours. At 6-hours post inoculation two mice of group 1 as well as three mice of each of groups 2 and 3 were sacrificed and their thighs were aseptically removed. […]

This note sets out measurements from patent EP3714904B1, “IMINODIACETIC ACID SUBSTITUTED CYCLODEXTRINS AS POTENTIATORS OF BETA-LACTAM ANTIBIOTICS” (NATIONAL CENTER FOR SCIENTIFIC RESEARCH "DEMOKRITOS" (NCSRD), priority 2019, dated 2020).

Sequence of NDM-1 (C7C422 29-270, looked up): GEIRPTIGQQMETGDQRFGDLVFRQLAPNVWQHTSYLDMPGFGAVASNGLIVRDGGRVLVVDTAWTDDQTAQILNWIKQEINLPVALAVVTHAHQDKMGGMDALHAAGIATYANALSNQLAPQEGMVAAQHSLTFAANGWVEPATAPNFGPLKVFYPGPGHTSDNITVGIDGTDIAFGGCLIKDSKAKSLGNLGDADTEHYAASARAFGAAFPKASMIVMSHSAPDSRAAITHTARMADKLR

For the molecule `CO[C@@H]1[C@@H](OC)[C@H]2O[C@H]3[C@H](OC)[C@@H](OC)[C@@H](O[C@H]4[C@H](OC)[C@@H](OC)[C@@H](O[C@H]5[C@H](OC)[C@@H](OC)[C@@H](O[C@H]6[C@H](OC)[C@@H](OC)[C@@H](O[C@H]7[C@H](OC)[C@@H](OC)[C@@H](O[C@H]8[C@H](OC)[C@@H](OC)[C@@H](O[C@@H]1[C@@H](CN(CC(=O)O)CC(=O)O)O2)O[C@@H]8CN(CC(=O)O)CC(=O)O)O[C@@H]7CN(CC(=O)O)CC(=O)O)O[C@@H]6CN(CC(=O)O)CC(=O)O)O[C@@H]5CN(CC(=O)O)CC(=O)O)O[C@@H]4CN(CC(=O)O)CC(=O)O)O[C@@H]3CN(CC(=O)O)CC(=O)O` [β-IDACYD], the IC50 against NDM-1 was 1.63 µM; on VIM-1, 15 µM. For the same molecule, the “reduction of bacterial burden of the thigh compared to antibiotic monotherapy” value in experiment [1] is on record as 0.5 log10.
